{"source": "patent US4472397A", "about": "“Use of certain 1-substituted-triazolo-benzodiazepines to treat psychoses” (priority 1983, dated 1984)", "key": {"[1]": {"tested_on": "^3 H-Spiroperidol binding", "assay": "animal or person", "type": "in vivo, Male ICR mice", "details": "for activity at 50 mg/kg: Mus musculus, sc, read-out: In vivo ^3 H-Spiroperidol % of Control", "procedure": "The following representative compounds were tested in an in vivo mouse ^3 H-Spiroperidol binding test.\nThe test procedure was as follows:\nMale ICR mice weighing 20-22 g were used.\nThe animals were dosed with the ^3 H-Spiroperidol solution at 66 micro-Curie/kg in 0.2 ml, by the subcutaneous route. The animals were sacrificed 2 hours later and sections of the brains of the mice were removed with striata and septum and some adjacent cortex. The tissues were weighed after freezing on dry ice and dissolved in 1 ml of Protosol overnight at 35° C. The Protosol was neutralized with 80 μl of 6N hydrochloric acid and 15 ml of ACS scintillation fluid was added. All samples were then counted in a liquid scintillation counter.\nA background of 25 counts per minute (CPM) was subtracted from the counts for each sample counted. The CPM/mg of the tissue was calculated and a statistical t test was used to test the significance of the value."}, "schizoaffective patient": {"tested_on": "schizoaffective patient", "assay": "Treatment of a human schizoaffective patient with adinazolam (Example 2)", "type": "in vivo", "details": "5 mg bid first day, 5 mg tid second day; over two days; one patient refractory to tricyclic antidepressant and stelazine", "procedure": "In a human patient, adinazolam was given for two days at a dosage of 5 mg bid (twice a day) the first day and 5 mg tid (three times a day) the second day to a human schizoaffective patient suffering moodcongruent delusions and persecutory auditory hallucinations which had been refractory to four months of therapy with a tricyclic antidepressant and stelazine. The clinician serving the patient found a remarkable approximately fifty percent (50%) improvement in the patient's condition over the two days of treatment with adinazolam."}, "[2]": {"tested_on": "psychotic, including schizophrenic, disorders", "assay": "Clinical trials in human patients with psychotic, including schizophrenic, disorders (Example 3)", "type": "in vivo", "procedure": "Clinical trials with the lead compound, adinazolam, in the treatment of human patients for psychotic, including schizophrenic, disorders in the absence of depression are in progress. […] Patients are being maintained on dosages of from 2.5 to 20 mg. of adinazolam qid (four times a day).\nIn one patient extrapyramidal side effects persisting from previous medication disappeared with adinazolam therapy."}, "serum prolactin": {"tested_on": "serum prolactin", "assay": "Serum prolactin levels in open-label depression studies", "type": "in vivo, human", "text": "(Three of the patients had been treated recently with a phenothiazine or amoxapine)."}, "[3]": {"tested_on": "intractable psychosis or schizoaffective illnesses", "assay": "Preliminary clinical trials in human patients with intractable psychosis or schizoaffective illnesses", "type": "in vivo", "details": "small, but effective and safe dosage amounts"}, "acute psychosis": {"tested_on": "acute psychosis", "details": "cited from earlier work"}, "[4]": {"details": "Dose 50 mg/kg, subcutaneous, one hour before ^3 H-Spiroperidol, sacrificed 2 hours later"}}, "note": "“Also recorded” adds a separate entry of the source. Where two headings read alike, the source gives them in different places.", "data": [{"smiles": "CN(C)Cc1nnc2n1-c1ccc(Cl)cc1C(c1ccccc1)=NC2", "note": "[Compound 1, 8-chloro-1-[(dimethylamino)methyl]-6-phenyl-4H--s-triazolo[4,3-a][1,4]-benzodiazepine]", "values": [{"measurement": "activity at 50 mg/kg", "setting": "[1]", "result": 82, "unit": "%"}, {"measurement": "Activity in the ^3 H-Spiroperidol binding test (in words)", "setting": "[1]; animals, in vivo, listed as adinazolam", "result": "active; also recorded: weak but suggested antipsychotic-like activity"}, {"measurement": "improvement in the patient's condition", "setting": "schizoaffective patient", "result": "~50", "unit": "%"}, {"measurement": "improvement of patients", "setting": "[2]; five patients, 2.5 to 20 mg qid, absence of depression", "result": "all experienced moderate or marked improvement"}, {"measurement": "extrapyramidal side effects persisting from previous medication", "setting": "[2]; one patient", "result": "disappeared"}, {"measurement": "effect of unintentional withdrawal of medication", "setting": "[2]; one patient, medication withdrawn for 24 hours", "result": "reverted to a psychotic condition"}, {"measurement": "effect of reinitiated therapy", "setting": "[2]; one patient, reinitiated in the morning after 24 hour withdrawal, that same day", "result": "became lucid again that same day"}, {"measurement": "prolactin levels in patients with elevated prolactin at introductory screening", "setting": "serum prolactin; four patients (2 males; 2 females), three recently treated with a phenothiazine or amoxapine", "result": "the prolactin levels in all four patients normalized"}, {"measurement": "effect on serum prolactin levels", "setting": "serum prolactin; open-label depression studies", "result": "no apparent elevating effect on serum prolactin levels"}, {"measurement": "symptoms of schizophrenia and affective improvement", "setting": "[3]", "result": "improved symptoms of schizophrenia and affective improvement"}]}, {"smiles": "CN1CCN(c2nnc3n2-c2ccc(Cl)cc2C(c2ccccc2)=NC3)CC1", "note": "[Compound 2, 8-chloro-1-(4-methyl-1-piperazinyl)-6-phenyl-4H--s-triazolo[4,3-a][1,4]benzodiazepine]", "values": [{"measurement": "In vivo ^3 H-Spiroperidol % of Control", "setting": "[1]; Dose 50 mg/kg, subcutaneous, one hour before ^3 H-Spiroperidol, sacrificed 2 hours later, 50 mg/kg", "result": 73, "unit": "%"}, {"measurement": "activity at 50 mg/kg", "setting": "[1]; [4]", "result": 69, "unit": "%"}]}, {"smiles": "CN(C)CCc1nnc2n1-c1ccc(Cl)cc1C(c1ccccc1)=NC2", "note": "[Compound 3, 8-chloro-1-[2-(dimethylamino)ethyl]-6-phenyl-4H--s-triazolo[4,3-a][1,4]benzodiazepine]", "values": [{"measurement": "activity at 50 mg/kg", "setting": "[1]; [4]", "result": 78, "unit": "%"}]}, {"smiles": "CN1CCN(c2nnc3n2-c2ccccc2C(c2ccccc2)=NC3)CC1", "note": "[Compound 4, 1-(4-methyl-1-piperazinyl)-6-phenyl-4H--s-triazolo[4,3-a][1,4]benzodiazepine]", "values": [{"measurement": "activity at 50 mg/kg", "setting": "[1]; [4]", "result": 59, "unit": "%"}]}, {"smiles": "CC1NC(c2ccccc2)c2cc(Cl)ccc2-n2c1nnc2N1CCN(C)CC1", "note": "(stereo not shown) [Compound 5, 8-chloro-1-(4-methyl-1-piperazinyl)-4-methyl-5,6-dihydro-6-phenyl-4H--s-triazolo[4,3-a][1,4]benzodiazepine]", "values": [{"measurement": "In vivo ^3 H-Spiroperidol % of Control", "setting": "[1]; [4]", "result": 89, "unit": "%"}]}, {"smiles": "CN1CCN(c2nnc3n2-c2ccccc2C(c2ccccc2Cl)=NC3)CC1", "note": "[Compound 6, 1-(4-methyl-1-piperazinyl)-6-(2-chlorophenyl)-4H--s-triazolo[4,3-a][1,4]benzodiazepine]", "values": [{"measurement": "activity at 50 mg/kg", "setting": "[1]; [4]", "result": 65, "unit": "%"}]}, {"smiles": "CCN1CCN(c2nnc3n2-c2ccccc2C(c2ccccc2Cl)=NC3)CC1", "note": "[Compound 7, 1-(4-ethyl-1-piperazinyl)-6-(2-chlorophenyl)-4H--s-triazolo[4,3][1,4]benzodiazepine]", "values": [{"measurement": "activity at 50 mg/kg", "setting": "[1]; [4]", "result": 72, "unit": "%"}]}, {"smiles": "CN1C(=O)CN=C(c2ccccc2)c2cc(Cl)ccc21", "note": "[diazepam]", "values": [{"measurement": "effectiveness versus haloperidol in acute psychosis", "setting": "acute psychosis; over 24 hours of treatment", "result": "at least as effective as haloperidol"}, {"measurement": "sedation effects", "setting": "acute psychosis; treatment of acute psychosis", "result": "marked sedation effects"}]}]}
